Patent publication US20100087498A1, “USE OF BIOTIN TO PREVENT PHOTOAGING” (priority 2007, published 2010)

Test system: MMP-1 expression in primary human dermal fibroblasts
Experiment: Inhibition of UV-A induced expression of matrix metalloproteinase-1 (MMP-1 RNA, real time PCR) in skin fibroblasts
Format: cell-based
Conditions: 30 J/cm^2 UVA1; for MMP-1 expression relative to UV-A only treated cells / reduction of UV-A induced MMP-1 expression: primary human dermal fibroblasts; for MMP-1 expression relative to UV-A only treated cells: 48 h preincubation, 24 hrs after irradiation; for reduction of UV-A induced MMP-1 expression: concentrations as in Table 1
Method: Primary human dermal fibroblasts were cultured in EMEM without glutamine (Earle's Minimum Essential Medium), supplemented with antibiotics/antimycotics, 2 mM L-glutamine and 7.5% fetal calf serum at 37° C./5% CO2 and grown to 100% confluency. Forty-eight hours prior to irradiation the cells were preincubated with the desired substances in EMEM (with AB/AM, L-Glutamine and 2% FCS. After 24 hours the medium was replaced by fresh medium with substances (freshly prepared). For irradiation, the medium was removed and after 6 wash steps with phosphate-buffered saline (PBS) replaced by phosphate-buffered saline (PBS). The plate was then exposed to 30 J/cm^2 UVA1. The UVA1 output was approximately 150 mW/cm^2. After irradiation the phosphate-buffered saline in the cell microplate was exchanged against culture medium (+7.5% FCS) with the substances (fresh prepared) and the cells were incubated in a CO2-incubator for further 24 hrs (MMP-1 determination). The culture medium was removed, the cells were rinsed with phosphate-buffered saline and the whole plate was frozen in liquid nitrogen. Total RNA was isolated using RNeasy Total RNA Kits (Qiagen, Hilden; Germany). The RNA concentration was determined via photometric measurement at 260/280. Aliquots of total RNA (75 ng) were applied for cDNA-Synthesis using Superscript™III First-Strand synthesis system for RT-PCR. Two samples for each compound were analyzed. The PCR reactions were carried out on an Opticon 1 (MJ Research, Waltham, Mass., USA) using SYBR Green® PCR Master Mix (Applied Biosystems, Darmstadt, Germany). For comparison of relative expression in real time PCR control cells and treated cells the 2 ^(-delta delta C(T)) method was used.

[1] = EGCG 9 μmol/L, Biotin 0.03 μmol/L

Compound	% inhibition (inhibition of UV-A induced MMP-1 expression, EGCG 9 μmol/L, Biotin 0.03 μmol/L) [%]	MMP-1 expression relative to UV-A only treated cells [1] [%]	reduction of UV-A induced MMP-1 expression [%]	inhibition at 0.03 µM (Homo sapiens, Fibroblast, light or radiation study, inhibition of UV-A induced MMP-1 expression, EGCG 9 μmol/L, Biotin 0.03 μmol/L) [%]
(-)-epigallocatechin gallate [EGCG]	13	87	13	
O=C(O)CCCC[C@@H]1SC[C@@H]2NC(=O)N[C@@H]21 [Biotin]		35	66	66
